Reference: US7772241B2, “Variolin derivatives and their use as antitumor agents” (Pharma Mar S.A., priority 2001, dated 2010)

Key:
HT-29 = assay: Inhibition of cells growth by colorimetric (SRB) assay, HT-29; conditions: for GI50 / CC50: Homo sapiens, HT-29, 48 h; for GI50: read-out: GI50 HT-29, SRB assay, 48 hours exposure; for CC50: read-out: LC50 HT-29, SRB assay, 48 hours exposure; for TGI HT-29: SRB assay, 48 hours exposure
Procedure, shortened: (§1)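 Human tumour cells in RPMI 1640 with 10% FBS were seeded at 5×10^3 cells/well, allowed to attach for 18 h, then exposed to samples at 10 to 10^−8 μg/ml for 48 h. Growth was measured by SRB staining after TCA fixation, with absorbance read at 490 nm in triplicate wells.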

SK-BR-3 = assay: Inhibition of cells growth by colorimetric (SRB) assay, SK-BR-3; conditions: for GI50 / CC50: Homo sapiens, SK-BR-3, 48 h; for GI50: read-out: GI50 SK-BR-3, SRB assay, 48 hours exposure; for CC50: read-out: LC50 SK-BR-3, SRB assay, 48 hours exposure; for TGI SK-BR-3: SRB assay, 48 hours exposure
Procedure, shortened: as §1

PANC-1 = assay: Inhibition of cells growth by colorimetric (SRB) assay, PANC-1; conditions: for GI50 / CC50: Homo sapiens, PANC-1, 48 h; for GI50: read-out: GI50 PANC-1, SRB assay, 48 hours exposure; for CC50: read-out: LC50 PANC-1, SRB assay, 48 hours exposure; for TGI PANC-1: SRB assay, 48 hours exposure
Procedure, shortened: as §1

A-549 = assay: Inhibition of cells growth by colorimetric (SRB) assay, A-549; conditions: for GI50 / CC50: Homo sapiens, A549, 48 h; for GI50: read-out: GI50 A-549, SRB assay, 48 hours exposure; for CC50: read-out: LC50 A-549, SRB assay, 48 hours exposure; for TGI A-549: SRB assay, 48 hours exposure
Procedure, shortened: as §1

HMEC1 = assay: Inhibition of cells growth by colorimetric (SRB) assay, HMEC1; conditions: for GI50: Homo sapiens, HMEC-1, 48 h, read-out: GI50 H-MEC-1, SRB assay, 48 hours exposure; for TGI H-MEC-1: SRB assay, 48 hours exposure, in M (unit assumed)
[1] = as above; conditions: human, HMEC1 cells, LC50 H-MEC-1, SRB assay, 48 hours exposure
SK-MEL-28 = assay: Inhibition of cells growth by colorimetric (SRB) assay, SK-MEL-28; conditions: for GI50 / CC50: Homo sapiens, SK-MEL-28, 48 h; for GI50: read-out: GI50 MEL-28, SRB assay, 48 hours exposure; for CC50: read-out: LC50 MEL-28, SRB assay, 48 hours exposure; for TGI MEL-28: SRB assay, 48 hours exposure
Procedure, shortened: as §1

IGROV-1 = assay: Inhibition of cells growth by colorimetric (SRB) assay, IGROV-1; conditions: for GI50 / CC50: Homo sapiens, IGROV-1, 48 h; for GI50: read-out: GI50 IGROV, SRB assay, 48 hours exposure; for CC50: read-out: LC50 IGROV, SRB assay, 48 hours exposure; for TGI IGROV: SRB assay, 48 hours exposure
Procedure, shortened: as §1

IGROV-ET = assay: Inhibition of cells growth by colorimetric (SRB) assay, IGROV-ET; conditions: for GI50 / CC50: Homo sapiens, 48 h; for GI50: read-out: GI50 IGROV-ET, SRB assay, 48 hours exposure; for CC50: read-out: LC50 IGROV-ET, SRB assay, 48 hours exposure; for TGI IGROV-ET: SRB assay, 48 hours exposure
Procedure, shortened: as §1

SK-OV-3 = assay: Inhibition of cells growth by colorimetric (SRB) assay, SK-OV-3; conditions: for GI50 / CC50: Homo sapiens, SK-OV-3, 48 h; for GI50: read-out: GI50 SKOV-3, SRB assay, 48 hours exposure; for CC50: read-out: LC50 SKOV-3, SRB assay, 48 hours exposure; for TGI SKOV-3: SRB assay, 48 hours exposure
Procedure, shortened: as §1

LNCaP = assay: Inhibition of cells growth by colorimetric (SRB) assay, LNCaP; conditions: for GI50 / CC50: Homo sapiens, LNCaP, 48 h; for GI50: read-out: GI50 LN-caP, SRB assay, 48 hours exposure; for CC50: read-out: LC50 LN-caP, SRB assay, 48 hours exposure; for TGI LN-caP: SRB assay, 48 hours exposure
Procedure, shortened: as §1

LoVo = assay: Inhibition of cells growth by colorimetric (SRB) assay, LoVo; conditions: for GI50 / CC50: Homo sapiens, LoVo, 48 h; for GI50: read-out: GI50 LOVO, SRB assay, 48 hours exposure; for CC50: read-out: LC50 LOVO, SRB assay, 48 hours exposure; for TGI LOVO: SRB assay, 48 hours exposure
Procedure, shortened: as §1

LoVo-Dox = assay: Inhibition of cells growth by colorimetric (SRB) assay, LoVo-Dox; conditions: for GI50 / CC50: Homo sapiens, 48 h; for GI50: read-out: GI50 LOVO-DOX, SRB assay, 48 hours exposure; for CC50: read-out: LC50 LOVO-DOX, SRB assay, 48 hours exposure; for TGI LOVO-DOX: SRB assay, 48 hours exposure
Procedure, shortened: as §1

DU-145 = assay: Inhibition of cells growth by colorimetric (SRB) assay, DU-145; conditions: for GI50 / CC50: Homo sapiens, DU-145, 48 h; for GI50: read-out: GI50 DU-145, SRB assay, 48 hours exposure; for CC50: read-out: LC50 DU-145, SRB assay, 48 hours exposure; for TGI DU-145: SRB assay, 48 hours exposure
Procedure, shortened: as §1

K-562 = assay: Inhibition of cells growth by colorimetric (SRB) assay, K-562; conditions: for GI50 / CC50: Homo sapiens, K562, 48 h; for GI50: read-out: GI50 K-562, SRB assay, 48 hours exposure; for CC50: read-out: LC50 K-562, SRB assay, 48 hours exposure; for TGI K-562: SRB assay, 48 hours exposure
Procedure, shortened: as §1

Structure (SMILES): COc1ccc2nc3c(cc2c1)c(-c1ccnc(SC)n1)c1ccnc(N)n13 [Compound 18b]
- GI50 (HT-29): ≥ 25.7 µM
- CC50 (HT-29): ≥ 25.7 µM
- TGI HT-29 (HT-29): 2.57E−05
- GI50 (SK-BR-3): ≥ 25.7 µM
- CC50 (SK-BR-3): ≥ 25.7 µM
- TGI SK-BR-3 (SK-BR-3): 2.57E−05
- GI50 (PANC-1): 10.3 µM
- CC50 (PANC-1): ≥ 25.7 µM
- TGI PANC-1 (PANC-1): 2.57E−05
- GI50 (A-549): ≥ 25.7 µM
- CC50 (A-549): ≥ 25.7 µM
- TGI A-549 (A-549): 2.57E−05
- GI50 (HMEC1): 12.2 µM
- TGI H-MEC-1 (HMEC1): 1.69E−05
- CC50 at 48 h [1]: 23.3 µM
- GI50 (SK-MEL-28): ≥ 25.7 µM
- CC50 (SK-MEL-28): ≥ 25.7 µM
- TGI MEL-28 (SK-MEL-28): 2.57E−05
- GI50 (IGROV-1): 20.8 µM
- CC50 (IGROV-1): ≥ 25.7 µM
- TGI IGROV (IGROV-1): 2.57E−05
- GI50 (IGROV-ET): ≥ 25.7 µM
- CC50 (IGROV-ET): ≥ 25.7 µM
- TGI IGROV-ET (IGROV-ET): 2.57E−05
- GI50 (SK-OV-3): ≥ 25.7 µM
- CC50 (SK-OV-3): ≥ 25.7 µM
- TGI SKOV-3 (SK-OV-3): 2.57E−05
- GI50 (LNCaP): 16.6 µM
- CC50 (LNCaP): ≥ 25.7 µM
- TGI LN-caP (LNCaP): 2.57E−05
- GI50 (LoVo): ≥ 25.7 µM
- CC50 (LoVo): ≥ 25.7 µM
- TGI LOVO (LoVo): 2.57E−05
- GI50 (LoVo-Dox): ≥ 25.7 µM
- CC50 (LoVo-Dox): ≥ 25.7 µM
- TGI LOVO-DOX (LoVo-Dox): 2.57E−05
- GI50 (DU-145): ≥ 25.7 µM
- CC50 (DU-145): ≥ 25.7 µM
- TGI DU-145 (DU-145): 2.57E−05
- GI50 (K-562): ≥ 25.7 µM
- CC50 (K-562): ≥ 25.7 µM
- TGI K-562 (K-562): 2.57E−05

Structure (SMILES): Nc1nccc(-c2c3cccnc3n3ccccc23)n1 [Compound 56]
- GI50 (HT-29): 12.5 µM
- CC50 (HT-29): 38.3 µM
- TGI HT-29 (HT-29): 3.46E−05
- GI50 (SK-BR-3): 5.32 µM
- CC50 (SK-BR-3): 38.3 µM
- TGI SK-BR-3 (SK-BR-3): 1.88E−05
- GI50 (PANC-1): 8.96 µM
- CC50 (PANC-1): 38.3 µM
- TGI PANC-1 (PANC-1): 1.94E−05
- GI50 (A-549): 6.28 µM
- CC50 (A-549): 34.9 µM
- TGI A-549 (A-549): 1.48E−05
- GI50 (HMEC1): 3.9 µM
- TGI H-MEC-1 (HMEC1): 9.34E−06
- CC50 at 48 h [1]: 22.3 µM
- GI50 (SK-MEL-28): 7.73 µM
- CC50 (SK-MEL-28): 38.3 µM
- TGI MEL-28 (SK-MEL-28): 1.73E−05
- GI50 (IGROV-1): 8.69 µM
- CC50 (IGROV-1): 38.3 µM
- TGI IGROV (IGROV-1): 1.91E−05
- GI50 (IGROV-ET): 11.5 µM
- CC50 (IGROV-ET): 38.3 µM
- TGI IGROV-ET (IGROV-ET): 2.35E−05
- GI50 (SK-OV-3): 7.12 µM
- CC50 (SK-OV-3): 35.5 µM
- TGI SKOV-3 (SK-OV-3): 1.59E−05
- GI50 (LNCaP): 5.93 µM
- CC50 (LNCaP): 20.6 µM
- TGI LN-caP (LNCaP): 1.11E−05
- GI50 (LoVo): 6.74 µM
- CC50 (LoVo): 38.3 µM
- TGI LOVO (LoVo): 1.63E−05
- GI50 (LoVo-Dox): 5.93 µM
- CC50 (LoVo-Dox): 38.3 µM
- TGI LOVO-DOX (LoVo-Dox): 1.66E−05
- GI50 (DU-145): 2.12 µM
- CC50 (DU-145): 25.6 µM
- TGI DU-145 (DU-145): 8.88E−06
- GI50 (K-562): 8.23 µM
- CC50 (K-562): 38.3 µM
- TGI K-562 (K-562): 1.83E−05
